Earlier results in US7582301B1, “Long-lasting antiviral fusion inhibitor peptide conjugates comprising albumin and human immunodeficiency virus (HIV) peptides” (Conjuchem Biotechnologies, Inc., priority 2000, dated 2009).
Where two headings read alike, the source gives them in different places.

What was measured:
[1] = tested on: HPIV-3; conditions: for inhibition of viral infection of HPIV3, including fusion and syncytia formation: result in words, HPIV3-infected Hep2 cells and uninfected CV-1W cells
[2] = tested on: simian immunodeficiency virus (SIV); conditions: as crude peptides; result in words
[3] = tested on: respiratory syncytial virus (RSV); conditions: RSV-infected and uninfected Hep-2 cells; for inhibition of viral infection of RSV, including fusion and syncytia formation: result in words
[4] = tested on: HIV-1; conditions: result in words
[5] = tested on: measles virus (MeV); conditions: result in words; MeV-infected and uninfected Vero cells
[6] = result in words

For “RSDIEKLKEAIRDTNKAVQSVQSSIGNLIVAIKSV [SEQ ID NO:58]”, the “inhibition of viral infection of HPIV3, including fusion and syncytia formation” value (“inhibition of viral infection of HPIV3” for short) [1] is listed as “inhibits viral infection”.
For “KVDFLEENITALLEEAQIQQEKNMYELQKLNSWDV [SEQ ID NO:70]”, the anti-SIV activity [2] is given as “potent antiviral activity”.
In the case of “IALLSTNKAVVSLSNGVSVLTSKVLDLKNYIDK [SEQ ID NO:29, anti-RSV peptide from the F1 region of RSV]”, the “concentration inhibiting fusion and syncytia formation” value [3] is given as “less than 50 μg/ml” and the “inhibition of viral infection of RSV, including fusion and syncytia formation” value (shortened to “inhibition of viral infection of RSV”) [3] is given as “inhibits viral infection”.
For “DPIDISIELNKAKSDLEESKEWIRRSNQKLDSIGN (LDPIDISIELNKAKSDLEESKEWIRRSNQKLDSIG) [SEQ ID NO:40, anti-HPIV-3 peptide, DP178-like]”, the “inhibition of viral infection of HPIV3” value [1] is listed as “inhibits viral infection”.
In the case of “ERKVDFLEENITALLEEAQIQQEKNMYELQKLNSW [SEQ ID NO:68]”, the anti-SIV activity [2] is given as “potent antiviral activity”.
In the case of “NNLLRAIEAQQHLLQLTVWQIKQLQARILAVERYLKDQ [DP107]”, the “anti-HIV-1 activity (inhibition of HIV-1 infection and fusion)” value ([4]; listed as DP-107) is listed as “potent inhibitors”.
For “VITIELSNIKENKCNGAKVKLIKQELDKYKNAV (VITIELSNIKENKCNGDAKVKLIKQELDKYKNAV) [SEQ ID NO:16, anti-RSV peptide from the F2 region of RSV]”, the “inhibition of viral infection of RSV” value [3] is listed as “inhibits viral infection”.
In the case of “FLEENITALLEEAQIQQEKNMYELQKLNSWDVFGN [SEQ ID NO:73]”, the anti-SIV activity [2] is given as “potent antiviral activity”.
In the case of enfuvirtide, the “anti-HIV-1 activity (inhibition of HIV-1 infection and fusion)” value ([4]; listed as DP-178) is listed as “potent inhibitors”.
For “ALDPIDISIELNKAKSDLEESKEWIRRSNQKLDSI (VALDPIDISIELNKAKSDLEESKEWIRRSNQKLDS) [SEQ ID NO:38, anti-HPIV-3 peptide, DP178-like]”, the “inhibition of viral infection of HPIV3” value [1] is given as “inhibits viral infection”.
For “RKVDFLEENITALLEEAQIQQEKNMYELQKLNSWD [SEQ ID NO:69]”, the anti-SIV activity [2] is given as “potent antiviral activity”.
In the case of “DFLEENITALLEEAQIQQEKNMYELQKLNSWDVFG [SEQ ID NO:72]”, the anti-SIV activity [2] is given as “potent antiviral activity”.
In the case of “LDPIDISIELNKAKSDLEESKEWIRRSNQKLDSIG (ALDPIDISIELNKAKSDLEESKEWIRRSNQKLDSI) [SEQ ID NO:39, anti-HPIV-3 peptide, DP178-like]”, the “inhibition of viral infection of HPIV3” value [1] is listed as “inhibits viral infection”.
In the case of “IDLGPPISLERLDVGTNLGNAIAKLEAKELLESS [SEQ ID NO:79]”, the “inhibition of viral infection of MeV, including fusion and syncytia formation” value (from here on “inhibition of viral infection of MeV”) [5] is listed as “inhibits viral infection”.
In the case of “IDISIELNKAKSDLEESKEWIRRSNQKLDSIGNWH (PIDISIELNKAKSDLEESKEWIRRSNQKLDSIGNW) [SEQ ID NO:42, anti-HPIV-3 peptide, DP178-like]”, the “inhibition of viral infection of HPIV3” value [1] is listed as “inhibits viral infection”.
In the case of “QEWERKVDFLEENITALLEEAQIQQEKNMYELQKL [SEQ ID NO:65]”, the anti-SIV activity [2] is listed as “potent antiviral activity”.
In the case of “HRIDLGPPISLERLDVGTNLGNAIAKLEAKELLE [SEQ ID NO:77]”, the “inhibition of viral infection of MeV” value [5] is given as “inhibits viral infection”.
In the case of “TSVITIELSNIKENKCNGAKVKLIKQELDKYKN (TSVITIELSNIKENKCNGDAKVKLIKQELDKYKN) [SEQ ID NO:15, anti-RSV peptide from the F2 region of RSV]”, the “inhibition of viral infection of RSV” value [3] is given as “inhibits viral infection”.
For “YTSVITIELSNIKENKCNGAKVKLIKQELDKYK (YTSVITIELSNIKENKCNGDAKVKLIKQELDKYK) [SEQ ID NO:14, anti-RSV peptide from the F2 region of RSV]”, the “inhibition of viral infection of RSV” value [3] is given as “inhibits viral infection”.
For “PISLERLDVGTNLGNAIAKLEAKELLESSDQILR [SEQ ID NO:84]”, the “inhibition of viral infection of MeV” value [5] is listed as “inhibits viral infection”.
For “VDFLEENITALLEEAQIQQEKNMYELQKLNSWDVF [SEQ ID NO:71]”, the anti-SIV activity [2] is listed as “potent antiviral activity”.
In the case of “NSVALDPIDISIELNKAKSDLEESKEWIRRSNQKL (NNSVALDPIDISIELNKAKSDLEESKEWIRRSNQK) [SEQ ID NO:35, anti-HPIV-3 peptide, DP178-like]”, the “concentration inhibiting fusion and syncytia formation” value ([1]; HPIV-3-infected Hep2 cells and uninfected CV-1W cells) is listed as “less than 1 μg/ml” and the “inhibition of viral infection of HPIV3” value [1] is listed as “inhibits viral infection”.
In the case of “WERKVDFLEENITALLEEAQIQQEKNMYELQKLNS [SEQ ID NO:67]”, the anti-SIV activity [2] is given as “potent antiviral activity”.
For “EWERKVDFLEENITALLEEAQIQQEKNMYELQKLN [SEQ ID NO:66]”, the anti-SIV activity [2] is given as “potent antiviral activity”.
For “WQEWERKVDFLEENITALLEEAQIQQEKNMYELQK [SEQ ID NO:64]”, the anti-SIV activity [2] is listed as “potent antiviral activity”.
In the case of “VEAKQARSDIEKLKEAIRDTNKAVQSVQSSIGNLI [SEQ ID NO:52]”, the “inhibition of viral infection of HPIV3” value [1] is given as “inhibits viral infection”.
For “PIDISIELNKAKSDLEESKEWIRRSNQKLDSIGNW (DPIDISIELNKAKSDLEESKEWIRRSNQKLDSIGN) [SEQ ID NO:41, anti-HPIV-3 peptide, DP178-like]”, the “inhibition of viral infection of HPIV3” value [1] is listed as “inhibits viral infection”.
For “SEQ ID NO:8: analog peptide demonstrated to exhibit anti-viral activity; sequence not printed in the text (CGGNNLLRAIEAQQHLLQLTVWGIKQLQARILAVERYLKDQ)”, the anti-viral activity [6] is listed as “exhibit anti-viral activity”.
